± gives the expanded uncertainty stated by the source.
Test: wn = mass fraction of the nth substance listed
Details: Liquid, Capillary tube (Ostwald / Ubbelohde) method

O=S(=O)([O-])[O-].[Na+].[Na+] [sodium sulfate] + O
viscosity [mPa·s]
Details	10000 kPa	20000 kPa	30000 kPa	40000 kPa
421.5 K, w1 = 0.03	0.2013 ± 0.0063	0.2035 ± 0.0063	0.2068 ± 0.0064	0.209 ± 0.0065
422.51 K, w1 = 0.23	0.4132 ± 0.013	0.4195 ± 0.013	0.4254 ± 0.013	0.43 ± 0.013
422.61 K, w1 = 0.015	0.1927 ± 0.006	0.1968 ± 0.0061	0.1999 ± 0.0062	0.2022 ± 0.0063
423.8 K, w1 = 0.26	0.4623 ± 0.014	0.4688 ± 0.014	0.4726 ± 0.015	0.4803 ± 0.015
424.67 K, w1 = 0.05	0.2079 ± 0.0065	0.2096 ± 0.0065	0.213 ± 0.0066	0.2164 ± 0.0067
425.6 K, w1 = 0.07	0.2211 ± 0.0069	0.2267 ± 0.0071	0.2293 ± 0.0071	0.23 ± 0.0072
444.81 K, w1 = 0.2	0.3083 ± 0.0095	0.3129 ± 0.0097	0.3175 ± 0.0098	0.3219 ± 0.0099
446.24 K, w1 = 0.05	0.1796 ± 0.0056	0.182 ± 0.0057	0.1853 ± 0.0058	0.1879 ± 0.0059
447 K, w1 = 0.07	0.1913 ± 0.006	0.1946 ± 0.0061	0.1975 ± 0.0062	0.1998 ± 0.0062
447.2 K, w1 = 0.1	0.2125 ± 0.0066	0.2163 ± 0.0067	0.2189 ± 0.0068	0.2219 ± 0.0069
447.6 K, w1 = 0.015	0.1633 ± 0.0051	0.1684 ± 0.0053	0.17 ± 0.0053	0.1724 ± 0.0054
447.6 K, w1 = 0.15	0.2493 ± 0.0077	0.2551 ± 0.0079	0.2575 ± 0.008	0.2603 ± 0.0081
447.6 K, w1 = 0.26	0.3901 ± 0.012	0.3981 ± 0.012	0.401 ± 0.012	0.4047 ± 0.013
447.81 K, w1 = 0.03	0.1686 ± 0.0053	0.1705 ± 0.0054	0.1734 ± 0.0054	0.1761 ± 0.0055
447.9 K, w1 = 0.23	0.3449 ± 0.011	0.3498 ± 0.011	0.3568 ± 0.011	0.3609 ± 0.011
470.16 K, w1 = 0.05	0.1564 ± 0.0049	0.1598 ± 0.005	0.1629 ± 0.0051	0.1647 ± 0.0052
470.7 K, w1 = 0.015	0.1432 ± 0.0045	0.1468 ± 0.0046	0.1499 ± 0.0047	0.1508 ± 0.0048
471.31 K, w1 = 0.1	0.1847 ± 0.0058	0.1878 ± 0.0059	0.1904 ± 0.006	0.1941 ± 0.0061
472 K, w1 = 0.23	0.2966 ± 0.0092	0.3024 ± 0.0094	0.3086 ± 0.0095	0.312 ± 0.0096
472.2 K, w1 = 0.07	0.1656 ± 0.0052	0.1689 ± 0.0053	0.1706 ± 0.0054	0.1739 ± 0.0055
472.3 K, w1 = 0.2	0.2608 ± 0.0081	0.2661 ± 0.0083	0.2699 ± 0.0084	0.2739 ± 0.0085
473.7 K, w1 = 0.03	0.1456 ± 0.0046	0.1486 ± 0.0047	0.1514 ± 0.0048	0.153 ± 0.0048
473.9 K, w1 = 0.26	0.3308 ± 0.01	0.3354 ± 0.01	0.3413 ± 0.01	0.3476 ± 0.011
473.93 K, w1 = 0.15	0.2133 ± 0.0066	0.2169 ± 0.0068	0.2199 ± 0.0068	0.224 ± 0.007
496.34 K, w1 = 0.23	0.262 ± 0.0081	0.2695 ± 0.0084	0.2734 ± 0.0085	0.2776 ± 0.0086
497.1 K, w1 = 0.03	0.1296 ± 0.0041	0.1312 ± 0.0042	0.136 ± 0.0043	0.1375 ± 0.0044
497.19 K, w1 = 0.2	0.2292 ± 0.0071	0.2335 ± 0.0073	0.2387 ± 0.0074	0.2425 ± 0.0075
497.8 K, w1 = 0.15	0.1892 ± 0.0059	0.1945 ± 0.0061	0.1978 ± 0.0062	0.2001 ± 0.0062
498.22 K, w1 = 0.1	0.1618 ± 0.0051	0.1641 ± 0.0052	0.1678 ± 0.0053	0.1711 ± 0.0054
498.3 K, w1 = 0.015	0.1248 ± 0.004	0.1286 ± 0.0041	0.1307 ± 0.0042	0.1325 ± 0.0042
498.7 K, w1 = 0.07	0.1451 ± 0.0046	0.1489 ± 0.0047	0.1506 ± 0.0047	0.1533 ± 0.0048
498.7 K, w1 = 0.26	0.2923 ± 0.0091	0.2976 ± 0.0092	0.3018 ± 0.0093	0.309 ± 0.0096
499.3 K, w1 = 0.05	0.1352 ± 0.0043	0.1363 ± 0.0043	0.1392 ± 0.0044	0.143 ± 0.0045
520.5 K, w1 = 0.26	0.2636 ± 0.0082	0.2691 ± 0.0083	0.2746 ± 0.0085	0.2813 ± 0.0087
520.51 K, w1 = 0.23	0.2338 ± 0.0073	0.2387 ± 0.0074	0.2415 ± 0.0075	0.249 ± 0.0077
520.64 K, w1 = 0.015	0.1128 ± 0.0036	0.1165 ± 0.0037	0.1191 ± 0.0038	0.1209 ± 0.0039
522.4 K, w1 = 0.15	0.1686 ± 0.0053	0.1709 ± 0.0054	0.1748 ± 0.0055	0.179 ± 0.0056
523.1 K, w1 = 0.07	0.1298 ± 0.0041	0.1324 ± 0.0042	0.1367 ± 0.0043	0.1385 ± 0.0044
523.3 K, w1 = 0.03	0.115 ± 0.0037	0.1169 ± 0.0037	0.1196 ± 0.0038	0.1219 ± 0.0039
523.8 K, w1 = 0.2	0.2021 ± 0.0063	0.2076 ± 0.0065	0.2105 ± 0.0066	0.216 ± 0.0067
524.7 K, w1 = 0.05	0.1204 ± 0.0038	0.1231 ± 0.0039	0.1267 ± 0.004	0.1286 ± 0.0041
525.4 K, w1 = 0.1	0.143 ± 0.0045	0.1469 ± 0.0046	0.1493 ± 0.0047	0.1524 ± 0.0048
545.3 K, w1 = 0.05	0.1097 ± 0.0035	0.112 ± 0.0036	0.1143 ± 0.0037	0.1177 ± 0.0038
545.4 K, w1 = 0.2	0.184 ± 0.0058	0.1879 ± 0.0059	0.1923 ± 0.006	0.1989 ± 0.0062
546.2 K, w1 = 0.07	0.1171 ± 0.0037	0.1197 ± 0.0038	0.1224 ± 0.0039	0.1267 ± 0.004
547.7 K, w1 = 0.15	0.151 ± 0.0048	0.1548 ± 0.0049	0.1589 ± 0.005	0.1634 ± 0.0051
547.9 K, w1 = 0.015	0.1 ± 0.0032	0.1025 ± 0.0033	0.1068 ± 0.0034	0.1089 ± 0.0035
547.9 K, w1 = 0.1	0.1296 ± 0.0041	0.1329 ± 0.0042	0.136 ± 0.0043	0.1399 ± 0.0044
548.7 K, w1 = 0.23	0.2061 ± 0.0064	0.2106 ± 0.0066	0.2186 ± 0.0068	0.223 ± 0.0069
549.9 K, w1 = 0.03	0.1023 ± 0.0033	0.1065 ± 0.0034	0.1086 ± 0.0035	0.1109 ± 0.0036
570.5 K, w1 = 0.15	0.1354 ± 0.0043	0.1399 ± 0.0044	0.1463 ± 0.0046	0.1496 ± 0.0047
572.62 K, w1 = 0.03	0.092 ± 0.003	0.0967 ± 0.0031	0.0992 ± 0.0032	0.102 ± 0.0033
572.96 K, w1 = 0.05	0.0965 ± 0.0031	0.0998 ± 0.0032	0.1029 ± 0.0033	0.1066 ± 0.0034
573.2 K, w1 = 0.1	0.1143 ± 0.0037	0.1178 ± 0.0038	0.1204 ± 0.0038	0.1266 ± 0.004
573.5 K, w1 = 0.07	0.1031 ± 0.0033	0.1068 ± 0.0034	0.1092 ± 0.0035	0.1143 ± 0.0037
